# Measurements reported in PubChem BioAssay (NCI).
#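 The compound was tested at five concentrations on cells cultured in 96-well plates, with a 48-hour exposure period. GI50: concentration for 50% inhibition of growth. TGI: concentration producing complete growth inhibition.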
# Legend:
# Assay in all cases: growth of human tumour cells (NCI), 48 h
# 786-0 renal = system: 786-0 renal
# A498 renal = system: A498 renal
# A549 NSCLC = system: A549 NSCLC
# ACHN renal = system: ACHN renal
# BT-549 breast = system: BT-549 breast
# CAKI-1 renal = system: CAKI-1 renal
# CCRF-CEM leukemia = system: CCRF-CEM leukemia
# COLO 205 colon = system: COLO 205 colon
# DU-145 prostate = system: DU-145 prostate
# EKVX NSCLC = system: EKVX NSCLC
# HCC-2998 colon = system: HCC-2998 colon
# HCT-116 colon = system: HCT-116 colon
# HCT-15 colon = system: HCT-15 colon
# HL-60(TB) leukemia = system: HL-60(TB) leukemia
# HOP-62 NSCLC = system: HOP-62 NSCLC
# HOP-92 NSCLC = system: HOP-92 NSCLC
# HS 578T breast = system: HS 578T breast
# HT29 colon = system: HT29 colon
# IGROV1 ovarian = system: IGROV1 ovarian
# K-562 leukemia = system: K-562 leukemia
# KM12 colon = system: KM12 colon
# LOX IMVI melanoma = system: LOX IMVI melanoma
# M14 melanoma = system: M14 melanoma
# MALME-3M melanoma = system: MALME-3M melanoma
# MCF7 breast = system: MCF7 breast
# MDA-MB-231 breast = system: MDA-MB-231 breast
# MDA-MB-435 = system: MDA-MB-435
# MOLT-4 leukemia = system: MOLT-4 leukemia
# NCI-H226 lung = system: NCI-H226 lung
# NCI-H23 lung = system: NCI-H23 lung
# NCI-H460 lung = system: NCI-H460 lung
# NCI-H522 lung = system: NCI-H522 lung
# NCI/ADR-RES ovarian = system: NCI/ADR-RES ovarian
# OVCAR-3 ovarian = system: OVCAR-3 ovarian
# OVCAR-4 ovarian = system: OVCAR-4 ovarian
# OVCAR-5 ovarian = system: OVCAR-5 ovarian
# OVCAR-8 ovarian = system: OVCAR-8 ovarian
# PC-3 prostate = system: PC-3 prostate
# RPMI-8226 leukemia = system: RPMI-8226 leukemia
# RXF 393 renal = system: RXF 393 renal
# SF-268 CNS = system: SF-268 CNS
# SF-295 CNS = system: SF-295 CNS
# SF-539 CNS = system: SF-539 CNS
# SK-MEL-2 melanoma = system: SK-MEL-2 melanoma
# SK-MEL-28 melanoma = system: SK-MEL-28 melanoma
# SK-MEL-5 melanoma = system: SK-MEL-5 melanoma
# SK-OV-3 ovarian = system: SK-OV-3 ovarian
# SN12C renal = system: SN12C renal
# SNB-19 CNS = system: SNB-19 CNS
# SNB-75 CNS = system: SNB-75 CNS
# SR leukemia = system: SR leukemia
# SW-620 colon = system: SW-620 colon
# T-47D breast = system: T-47D breast
# TK-10 renal = system: TK-10 renal
# U251 CNS = system: U251 CNS
# UACC-257 melanoma = system: UACC-257 melanoma
# UACC-62 melanoma = system: UACC-62 melanoma
# UO-31 renal = system: UO-31 renal
smiles,measurement,setting,value
C=C(C)[C@@H]1CC[C@]2(C)[C@H](CC[C@@H]3[C@@H]([C@@](C)(O)CCC=C(C)C)CC[C@]32C)[C@@]1(C)CCC(=O)N1CCN(C)CC1,GI50,786-0 renal,10.3 µM
same,TGI,786-0 renal,23.8 µM
same,GI50,A498 renal,13.2 µM
same,TGI,A498 renal,26.6 µM
same,GI50,A549 NSCLC,9.65 µM
same,TGI,A549 NSCLC,24.2 µM
same,GI50,ACHN renal,13.6 µM
same,TGI,ACHN renal,26.5 µM
same,GI50,BT-549 breast,11.2 µM
same,TGI,BT-549 breast,24.1 µM
same,GI50,CAKI-1 renal,12.4 µM
same,TGI,CAKI-1 renal,24.9 µM
same,GI50,CCRF-CEM leukemia,11.6 µM
same,TGI,CCRF-CEM leukemia,37.6 µM
same,GI50,COLO 205 colon,12.3 µM
same,TGI,COLO 205 colon,26.8 µM
same,GI50,DU-145 prostate,11.9 µM
same,TGI,DU-145 prostate,24.6 µM
same,GI50,EKVX NSCLC,11.6 µM
same,TGI,EKVX NSCLC,23.9 µM
same,GI50,HCC-2998 colon,13.5 µM
same,TGI,HCC-2998 colon,26.3 µM
same,GI50,HCT-116 colon,4.43 µM
same,TGI,HCT-116 colon,16.9 µM
same,GI50,HCT-15 colon,6.04 µM
same,TGI,HCT-15 colon,18.1 µM
same,GI50,HL-60(TB) leukemia,4.26 µM
same,TGI,HL-60(TB) leukemia,19.2 µM
same,GI50,HOP-62 NSCLC,12.8 µM
same,TGI,HOP-62 NSCLC,26.1 µM
same,GI50,HOP-92 NSCLC,6.4 µM
same,TGI,HOP-92 NSCLC,20.7 µM
same,GI50,HS 578T breast,13.1 µM
same,TGI,HS 578T breast,36.5 µM
same,GI50,HT29 colon,4.14 µM
same,TGI,HT29 colon,16.2 µM
same,GI50,IGROV1 ovarian,12.7 µM
same,TGI,IGROV1 ovarian,27.4 µM
same,GI50,K-562 leukemia,4.26 µM
same,TGI,K-562 leukemia,24.1 µM
same,GI50,KM12 colon,10.5 µM
same,TGI,KM12 colon,23.6 µM
same,GI50,LOX IMVI melanoma,13.4 µM
same,TGI,LOX IMVI melanoma,26.5 µM
same,GI50,M14 melanoma,10.1 µM
same,TGI,M14 melanoma,24.2 µM
same,GI50,MALME-3M melanoma,10.7 µM
same,TGI,MALME-3M melanoma,23.6 µM
same,GI50,MCF7 breast,7 µM
same,TGI,MCF7 breast,21.1 µM
same,GI50,MDA-MB-231 breast,13.4 µM
same,TGI,MDA-MB-231 breast,26.7 µM
same,GI50,MDA-MB-435,12.2 µM
same,TGI,MDA-MB-435,26.5 µM
same,GI50,MOLT-4 leukemia,6.39 µM
same,TGI,MOLT-4 leukemia,29.3 µM
same,GI50,NCI-H226 lung,12.9 µM
same,TGI,NCI-H226 lung,31.7 µM
same,GI50,NCI-H23 lung,13.7 µM
same,TGI,NCI-H23 lung,27.5 µM
same,GI50,NCI-H460 lung,16.9 µM
same,TGI,NCI-H460 lung,32.9 µM
same,GI50,NCI-H522 lung,13.4 µM
same,TGI,NCI-H522 lung,28.2 µM
same,GI50,NCI/ADR-RES ovarian,12.1 µM
same,TGI,NCI/ADR-RES ovarian,25 µM
same,GI50,OVCAR-3 ovarian,10.4 µM
same,TGI,OVCAR-3 ovarian,22.5 µM
same,GI50,OVCAR-4 ovarian,10.1 µM
same,TGI,OVCAR-4 ovarian,23.4 µM
same,GI50,OVCAR-5 ovarian,14 µM
same,TGI,OVCAR-5 ovarian,27.4 µM
same,GI50,OVCAR-8 ovarian,14.1 µM
same,TGI,OVCAR-8 ovarian,30.5 µM
same,GI50,PC-3 prostate,3.77 µM
same,TGI,PC-3 prostate,15.8 µM
same,GI50,RPMI-8226 leukemia,5.99 µM
same,TGI,RPMI-8226 leukemia,28.6 µM
same,GI50,RXF 393 renal,5.25 µM
same,TGI,RXF 393 renal,16.4 µM
same,GI50,SF-268 CNS,13.1 µM
same,TGI,SF-268 CNS,30.1 µM
same,GI50,SF-295 CNS,13.4 µM
same,TGI,SF-295 CNS,26.2 µM
same,GI50,SF-539 CNS,9.44 µM
same,TGI,SF-539 CNS,21.7 µM
same,GI50,SK-MEL-2 melanoma,14.8 µM
same,TGI,SK-MEL-2 melanoma,29.8 µM
same,GI50,SK-MEL-28 melanoma,12.9 µM
same,TGI,SK-MEL-28 melanoma,25.8 µM
same,GI50,SK-MEL-5 melanoma,6.97 µM
same,TGI,SK-MEL-5 melanoma,19.6 µM
same,GI50,SK-OV-3 ovarian,12.9 µM
same,TGI,SK-OV-3 ovarian,26.4 µM
same,GI50,SN12C renal,11.4 µM
same,TGI,SN12C renal,24.2 µM
same,GI50,SNB-19 CNS,15 µM
same,TGI,SNB-19 CNS,28.4 µM
same,GI50,SNB-75 CNS,11.3 µM
same,TGI,SNB-75 CNS,25 µM
same,GI50,SR leukemia,3.39 µM
same,TGI,SR leukemia,21.6 µM
same,GI50,SW-620 colon,13 µM
same,TGI,SW-620 colon,28.5 µM
same,GI50,T-47D breast,4.72 µM
same,TGI,T-47D breast,19.6 µM
same,GI50,TK-10 renal,17.7 µM
same,TGI,TK-10 renal,32.2 µM
same,GI50,U251 CNS,10.1 µM
same,TGI,U251 CNS,22 µM
same,GI50,UACC-257 melanoma,11.8 µM
same,TGI,UACC-257 melanoma,25.6 µM
same,GI50,UACC-62 melanoma,11.2 µM
same,TGI,UACC-62 melanoma,24.1 µM
same,GI50,UO-31 renal,11.3 µM
same,TGI,UO-31 renal,23.3 µM
